Read-outs that look alike come from different tables or passages of the source.
Tests used:
[1] = system: non-expressing oocytes; type: cell-based, Xenopus laevis; details: total [3H]CQ transport; [test solute]i = 45 mM (intracellular; 30 mM for some solutes due to solubility); mean ± SEM; SEM
Procedure, shortened: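 Oocytes (ten per treatment, ≥4 independent frogs/days) were preloaded by injecting VF-6 in 25 nL ND96 at pH 5.0, 5.5, 6.0 or 7.0, or Na^+-free choline buffer, then uptake run 1.5 h, 27.5 °C, ND96 pH 5.5 by default. Internal concentrations assumed ~400 nL oocyte volume.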

[2] = target: PfCRT^Ecu1110 (Plasmodium falciparum, UniProt Q9N623, A220S/I356L/K76T/N326D); experiment: cell-based; type: cell-based; details: […]
PfCRT^Ecu1110, sequence (Q9N623 whole entry A220S/I356L/K76T/N326D): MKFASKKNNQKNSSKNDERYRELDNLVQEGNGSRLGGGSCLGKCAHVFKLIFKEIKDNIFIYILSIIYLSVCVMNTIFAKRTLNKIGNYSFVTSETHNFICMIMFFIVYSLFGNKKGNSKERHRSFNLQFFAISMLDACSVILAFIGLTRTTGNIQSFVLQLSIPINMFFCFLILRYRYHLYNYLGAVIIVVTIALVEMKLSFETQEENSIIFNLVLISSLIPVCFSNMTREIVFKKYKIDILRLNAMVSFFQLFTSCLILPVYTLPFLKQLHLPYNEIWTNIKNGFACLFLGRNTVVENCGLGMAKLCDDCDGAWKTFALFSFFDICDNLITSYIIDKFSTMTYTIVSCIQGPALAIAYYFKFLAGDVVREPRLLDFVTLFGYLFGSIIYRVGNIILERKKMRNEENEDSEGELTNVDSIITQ
Procedure, shortened: (§1)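 Transport measured in Xenopus oocytes expressing the transporters, 1.5 h at 27.5 °C in ND96 pH 5.5 unless noted. For trans-stimulation, VF-6 injected in 25 nL ND96 at pH 5.0–7.0 or Na^+-free (choline) buffer; intracellular levels based on ~400 nL oocyte volume. Ten oocytes per treatment, ≥4 experiments.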

[3] = target: T1, PfCRT^3D7 (Plasmodium falciparum, UniProt Q8IBZ9); experiment: cell-based; type: cell-based
T1 sequence (Q8IBZ9 59-398): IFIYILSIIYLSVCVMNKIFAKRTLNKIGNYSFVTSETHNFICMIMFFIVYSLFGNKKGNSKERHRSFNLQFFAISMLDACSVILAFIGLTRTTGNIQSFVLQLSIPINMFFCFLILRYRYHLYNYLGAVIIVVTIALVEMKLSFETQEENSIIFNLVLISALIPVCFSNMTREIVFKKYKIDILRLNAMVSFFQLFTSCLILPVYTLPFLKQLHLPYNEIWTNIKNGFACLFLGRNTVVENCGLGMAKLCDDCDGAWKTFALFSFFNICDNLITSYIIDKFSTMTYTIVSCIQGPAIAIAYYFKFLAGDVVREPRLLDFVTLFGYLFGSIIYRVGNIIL
Procedure, shortened: as §1

[4] = target: PfCRT^Dd2 (Plasmodium falciparum, UniProt Q9N623, A220S/I356T/K76T/M74I/N326S/N75E/Q271E/R371I); experiment: cell-based; type: cell-based; details: […]; for activity at 45000 µM: [test solute]i = 45 mM (30 mM for some solutes due to solubility)
PfCRT^Dd2, sequence (Q9N623 whole entry A220S/I356T/K76T/M74I/N326S/N75E/Q271E/R371I): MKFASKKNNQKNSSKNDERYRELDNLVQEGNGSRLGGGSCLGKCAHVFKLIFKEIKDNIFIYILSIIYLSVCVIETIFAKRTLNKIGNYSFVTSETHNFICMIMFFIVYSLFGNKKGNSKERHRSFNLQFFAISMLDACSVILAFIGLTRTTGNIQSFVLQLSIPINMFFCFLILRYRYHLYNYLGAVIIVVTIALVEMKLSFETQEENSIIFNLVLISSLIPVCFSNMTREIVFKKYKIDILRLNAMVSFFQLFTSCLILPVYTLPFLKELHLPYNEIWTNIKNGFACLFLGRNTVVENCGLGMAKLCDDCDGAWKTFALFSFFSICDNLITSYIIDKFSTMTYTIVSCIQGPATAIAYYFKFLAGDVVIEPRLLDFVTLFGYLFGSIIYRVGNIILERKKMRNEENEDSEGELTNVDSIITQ
Procedure, shortened: as §1

[5] = target: T2, PfNT1 (Plasmodium falciparum, UniProt Q8IDM6); experiment: cell-based; type: cell-based; details: for activity at 5000 µM: total [3H]CQ transport
T2 construct: expressed in transfected cells; host or cells: Xenopus laevis oocytes (stage V-VI), cRNA-injected
T2 sequence (Q8IDM6 whole entry): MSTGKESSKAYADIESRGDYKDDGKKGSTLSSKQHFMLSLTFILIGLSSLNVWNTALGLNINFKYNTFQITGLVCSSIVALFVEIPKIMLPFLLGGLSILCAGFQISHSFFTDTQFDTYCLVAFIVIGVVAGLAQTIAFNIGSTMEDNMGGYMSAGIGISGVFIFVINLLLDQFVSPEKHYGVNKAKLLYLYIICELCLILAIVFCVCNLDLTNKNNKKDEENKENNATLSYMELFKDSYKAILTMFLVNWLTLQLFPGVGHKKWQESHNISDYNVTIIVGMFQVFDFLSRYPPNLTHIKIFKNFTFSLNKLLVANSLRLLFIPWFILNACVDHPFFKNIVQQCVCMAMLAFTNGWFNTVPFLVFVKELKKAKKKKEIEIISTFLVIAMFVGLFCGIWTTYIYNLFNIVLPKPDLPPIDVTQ
Procedure, shortened: as §1

[6] = target: T1, PfCRT^3D7; experiment: cell-based; type: cell-based; details: total [3H]CQ transport; for inhibition at 500 µM: [test solute] = 0.5 mM; for inhibition at 1000 µM: [test solute] = 1 mM; for inhibition at 2000 µM: [test solute] = 2 mM
Procedure, shortened: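 Radioactivity accumulated per oocyte, read by liquid scintillation after 10% SDS lysis, served as the uptake measure. Incubations ran 1.5 h at 27.5 °C in ND96 at pH 5.5, matching digestive-vacuole acidity.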

[7] = system: PfCRT; experiment: Test of solutes as potential co-substrates for influx of VF-6 via PfCRT into the oocyte; type: cell-based, Plasmodium falciparum; design: key: X: Compounds that have been tested as potential co-substrates but are not required for influx of VF-6 via PfCRT into the oocyte; details: X = tested
[8] = system: PfCRT; experiment: Influx of VF-6 via PfCRT into the oocyte, solutes tested as potential co-substrates; type: cell-based, Plasmodium falciparum; design: key: X: Compounds that have been tested as potential co-substrates but are not required for influx of VF-6 via PfCRT into the oocyte; details: X marks the solute
[9] = PfCRT3D7 oocytes, normalised to the oocyte type control, read-out: Uptake of [3H]CQ (% PfCRT3D7 control), cis-inhibition
[10] = mean ± SEM, SEM, read-out: Uptake of [3H]CQ (% PfCRTDd2 control), cis-inhibition, PfCRT3D7

## N[C@@H](CS)C(=O)O [L-cysteine]
[1]
  Uptake of [3H]CQ (% PfCRTDd2 control), trans-stimulation, non-expressing oocytes: 2.2 ± 0.03 % PfCRTDd2 control
[2]; pH 5.5, read-out: PfCRT-mediated [3H]CQ transport, trans-stimulation (% PfCRTEcu1110 control), [test solute]i = 5 mM (intracellular), PfCRTEcu1110 oocytes, normalised to oocyte type control
  activity at 5000 µM: 95 ± 3%
[2]; pH 5.5, read-out: Uptake of [3H]CQ (% PfCRTEcu1110 control), trans-stimulation, PfCRTEcu1110 oocytes, [test solute]i = 5 mM, total [3H]CQ transport, normalised to the oocyte type control
  activity at 5000 µM: 97 ± 4.2%
[2]; pH 5.5, read-out: Uptake of [3H]CQ (% PfCRTEcu1110 control), trans-stimulation, PfCRTEcu1110 oocytes, [test solute]i = 45 mM (30 mM for some solutes due to solubility), total [3H]CQ transport, normalised to the oocyte type control
  activity at 45000 µM: 100 ± 3.5%
[2]; read-out: Uptake of [3H]CQ (% PfCRTDd2 control), trans-stimulation, PfCRTEcu1110, total [3H]CQ transport, [test solute]i = 5 mM (intracellular), mean ± SEM, SEM
  activity at 5000 µM: 35 ± 1.4%
[2]; read-out: Uptake of [3H]CQ (% PfCRTDd2 control), trans-stimulation, PfCRTEcu1110, total [3H]CQ transport, [test solute]i = 45 mM (intracellular; 30 mM for some solutes due to solubility), mean ± SEM, SEM
  activity at 45000 µM: 36 ± 2.7%
[3]; PfCRT3D7 oocytes, [test solute]i = 5 mM, total [3H]CQ transport, normalised to the oocyte type control, read-out: Uptake of [3H]CQ (% PfCRT3D7 control), trans-stimulation
  activity at 5000 µM: 100 ± 2.4%
[3]; SEM
  [3H]CQ transport (% PfCRT3D7 control), trans-stimulation, PfCRT3D7: 0.3 ± 0.02 % PfCRT3D7 control
[3]; [test solute]i = 5 mM (intracellular), PfCRT3D7 oocytes, normalised to oocyte type control, read-out: PfCRT-mediated [3H]CQ transport, trans-stimulation (% PfCRT3D7 control)
  activity at 5000 µM: 98 ± 3.1%
[3]; SEM, read-out: Uptake of [3H]CQ (% PfCRTDd2 control), trans-stimulation, PfCRT3D7
  activity at 45000 µM: 3.2 ± 0.08%
[3]; read-out: PfCRT-mediated [3H]CQ transport, trans-stimulation (% PfCRT3D7 control)
  activity at 45000 µM: 94 ± 4.4%
[3]; read-out: Uptake of [3H]CQ (% PfCRT3D7 control), trans-stimulation
  activity at 45000 µM: 96 ± 3.5%
[3]; total [3H]CQ transport, [test solute]i = 5 mM (intracellular), mean ± SEM, SEM, read-out: Uptake of [3H]CQ (% PfCRTDd2 control), trans-stimulation, PfCRT3D7
  activity at 5000 µM: 3.3 ± 0.05%
[4]; pH 5.5, read-out: PfCRT-mediated [3H]CQ transport, trans-stimulation (% PfCRTDd2 control), [test solute]i = 5 mM (intracellular), PfCRTDd2 oocytes, normalised to oocyte type control
  activity at 5000 µM: 97 ± 2.6%
[4]; pH 5.5, read-out: Uptake of [3H]CQ (% PfCRTDd2 control), trans-stimulation, PfCRTDd2, total [3H]CQ transport, [test solute]i = 5 mM (intracellular), mean ± SEM, SEM
  activity at 5000 µM: 99 ± 3.2%
[4]; pH 5.5, read-out: Uptake of [3H]CQ (% PfCRTDd2 control), trans-stimulation, PfCRTDd2 oocytes, [test solute]i = 5 mM, total [3H]CQ transport, normalised to the oocyte type control
  activity at 5000 µM: 99 ± 3.2%
[4]; pH 5.5, read-out: Uptake of [3H]CQ (% PfCRTDd2 control), trans-stimulation, PfCRTDd2 oocytes, total [3H]CQ transport, normalised to the oocyte type control
  activity at 45000 µM: 101 ± 3.7%
[4]; pH 5.5, read-out: [3H]CQ transport (% PfCRTDd2 control), trans-stimulation, PfCRTDd2, trans-stimulation, [test solute]i = 5 mM (injected), PfCRT-mediated component (background subtracted), mean ± SEM, SEM
  activity at 5000 µM: 97 ± 2.6%
[4]; pH 5.5, read-out: [3H]CQ transport (% PfCRTDd2 control), trans-stimulation, PfCRTDd2, trans-stimulation, PfCRT-mediated component (background subtracted), mean ± SEM, SEM
  activity at 45000 µM: 99 ± 4.5%
[5]; PfNT1 oocytes, [test solute]i = 5 mM, normalised to the oocyte type control, read-out: Uptake of [3H]CQ (% PfNT1 control), trans-stimulation
  activity at 5000 µM: 98 ± 3.7%
[5]; SEM, read-out: Uptake of [3H]CQ (% PfCRTDd2 control), trans-stimulation, PfNT1
  activity at 45000 µM: 2.6 ± 0.05%
[5]; read-out: Uptake of [3H]CQ (% PfNT1 control), trans-stimulation
  activity at 45000 µM: 99 ± 3.2%
[5]; [test solute]i = 5 mM (intracellular), mean ± SEM, SEM, read-out: Uptake of [3H]CQ (% PfCRTDd2 control), trans-stimulation, PfNT1
  activity at 5000 µM: 2.6 ± 0.08%
[6]; [9]
  inhibition at 500 µM: 99 ± 3.2%
  inhibition at 1000 µM: 100 ± 3.6%
  inhibition at 2000 µM: 99 ± 4.2%
[6]; [10]
  inhibition at 500 µM: 3.4 ± 0.05%
  inhibition at 1000 µM: 2.5 ± 0.05%
  inhibition at 2000 µM: 3.1 ± 0.08%
[7]
  Tested as potential co-substrate but not required for influx of VF-6 via PfCRT into the oocyte: X
[8]
  Compounds that have been tested as potential co-substrates but are not required for influx of VF-6 via PfCRT into the oocyte: X
